This passage reports IC50 and EC50 results from ChEMBL document CHEMBL4431384, “Indole-based allosteric inhibitors of HIV-1 integrase” (Bioorg Med Chem Lett, 2016).

The target of test [1] is T1, Human immunodeficiency virus type 1 integrase (Human immunodeficiency virus 1, UniProt Q7ZJM1). Briefly: Inhibition of recombinant full length C-terminal His-tagged HIV1 integrase expressed in Escherichia coli BL21(DE3) cells assessed as inhibition of recombinant C-terminal FLAG-tagged LEDGF/p75-induced integration of viral 32-mer blunt-ended U5 DNA into pBR322 DNA preincubated with enzyme for 30 mins followed by viral and target DNA addition and subsequent addition of LEDGF/p75 after 5 mins measured after 90 mins by HTRF assay. In kind it is cell-based.
T1 sequence (Q7ZJM1 whole entry): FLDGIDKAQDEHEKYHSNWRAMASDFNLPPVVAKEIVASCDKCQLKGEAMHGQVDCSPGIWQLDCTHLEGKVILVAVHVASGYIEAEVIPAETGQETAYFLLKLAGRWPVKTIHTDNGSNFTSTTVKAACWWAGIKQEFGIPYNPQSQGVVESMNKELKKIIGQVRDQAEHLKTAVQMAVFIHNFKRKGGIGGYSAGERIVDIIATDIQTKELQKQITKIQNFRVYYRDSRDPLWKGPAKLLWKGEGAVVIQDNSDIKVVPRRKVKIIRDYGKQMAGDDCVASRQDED

The target in test [2] is T1, Human immunodeficiency virus type 1 integrase. As to the kind of experiment: Inhibition of recombinant full length C-terminal His-tagged HIV1 integrase expressed in Escherichia coli BL21(DE3) cells assessed as reduction in LEDGF/p75 independent 3' processing activity using 32P-labeled blunt ended 21-mer DNA as substrate preincubated for 30 mins followed by substrate addition measured after 1 hr by […]. (In TR-FRET formats the signal depends on donor and acceptor labels being close together.)

The target is the same in test [3]. Briefly: Inhibition of recombinant full length HIV1 C-terminal His-tagged integrase multimerization with N-terminal FLAG-tagged integrase expressed in Escherichia coli BL21(DE3) cells after 2.5 hrs by HTRF assay.
Test [4] has as its target T2, Human immunodeficiency virus type 1 integrase (Human immunodeficiency virus 1, UniProt Q7ZJM1, A128T). Briefly: Inhibition of recombinant full length C-terminal His-tagged HIV1 integrase A128T mutant expressed in Escherichia coli BL21(DE3) cells assessed as reduction in LEDGF/p75 independent 3' processing activity using 32P-labeled blunt ended 21-mer DNA as substrate preincubated for 30 mins followed by substrate addition measured after 1 hr by […].

The target of test [5] is T2, Human immunodeficiency virus type 1 integrase. Briefly: Inhibition of recombinant full length HIV1 C-terminal His-tagged integrase A128T mutant multimerization with N-terminal FLAG-tagged integrase A128T mutant expressed in Escherichia coli BL21(DE3) cells after 2.5 hrs by HTRF assay.
The target in test [6] is T1, Human immunodeficiency virus type 1 integrase. As to the kind of experiment: Inhibition of C-terminal FLAG-tagged LEDGF/p75 binding to recombinant full length N-terminal His-tagged HIV1 integrase expressed in Escherichia coli BL21(DE3) cells preincubated with enzyme for 30 mins followed by LEDGF/p75 addition by HTRF assay.

T2 sequence (Q7ZJM1 entry or part of it A128T): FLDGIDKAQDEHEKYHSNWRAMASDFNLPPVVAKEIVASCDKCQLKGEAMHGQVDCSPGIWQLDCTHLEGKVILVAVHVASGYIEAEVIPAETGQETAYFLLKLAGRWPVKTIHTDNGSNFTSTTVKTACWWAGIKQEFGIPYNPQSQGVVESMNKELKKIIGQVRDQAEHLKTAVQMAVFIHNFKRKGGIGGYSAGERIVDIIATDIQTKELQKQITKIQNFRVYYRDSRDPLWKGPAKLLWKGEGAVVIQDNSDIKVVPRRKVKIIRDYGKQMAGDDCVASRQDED

In general, IC50 refers to the concentration that gives 50% inhibition. As for `COC(C(=O)O)c1c(C)nc2ccc(Br)cc2c1-c1ccc(Cl)cc1` (stereo not drawn), the IC50 in test [1] was found to be 1.3 µM.
One may read the EC50 as the concentration giving half of the maximal effect. For the molecule `Cn1c(C(OC(C)(C)C)C(=O)O)c(-c2ccc3c(c2)CCCO3)c2ccccc21` (stereo not drawn), the IC50 in test [2] was determined as 3.2 µM; in test [1], 4.5 µM; in test [4] it was 0.9 µM; in test [6] it was 28.7 µM. Moreover, the EC50 in test [3] is 16.1 µM; in test [5], 16 µM.
In the case of `Cn1c(C(OC(C)(C)C)C(=O)O)c(Cc2ccccc2)c2ccccc21` (stereo not drawn), the IC50 in test [1] worked out at 31.3 µM.
Take `Cn1c(CC(OC(C)(C)C)C(=O)O)c(-c2ccccc2)c2ccccc21` (stereo not drawn): the IC50 in test [1] was above 100 µM.
Still for that read-out and setting: next, `COc1ccc(-n2c(C(OC(C)(C)C)C(=O)O)c(C)c3ccccc32)cc1` (stereo not drawn): above 100 µM; `COc1ccc(-c2c(C(OC(C)(C)C)C(=O)O)n(C)c3ccccc23)cc1` (stereo not drawn): 32 µM; `COc1ccc(-c2c(C(OC(C)(C)C)C(=O)O)n(Cc3ccccc3)c3ccccc23)cc1` (stereo not drawn): 59.1 µM.
On the same count and under the same terms, in the case of `Cn1c(C(OC(C)(C)C)C(=O)O)c(-c2ccccc2)c2ccccc21` (stereo not drawn) it was 44.1 µM.
